{"source": "patent US12162888B2", "about": "“Carboxamides as ubiquitin-specific protease inhibitors” (Valo Early Discovery, Inc., priority 2018, dated 2024)", "biological_target": "T1, USP25 (USP25-His6, Boston Biochem E-546) (Homo sapiens, UniProt Q9UHP3)", "T1 construct": "His6 (C); purchased Boston Biochem E-546", "T1 sequence (Q9UHP3 1-1055)": "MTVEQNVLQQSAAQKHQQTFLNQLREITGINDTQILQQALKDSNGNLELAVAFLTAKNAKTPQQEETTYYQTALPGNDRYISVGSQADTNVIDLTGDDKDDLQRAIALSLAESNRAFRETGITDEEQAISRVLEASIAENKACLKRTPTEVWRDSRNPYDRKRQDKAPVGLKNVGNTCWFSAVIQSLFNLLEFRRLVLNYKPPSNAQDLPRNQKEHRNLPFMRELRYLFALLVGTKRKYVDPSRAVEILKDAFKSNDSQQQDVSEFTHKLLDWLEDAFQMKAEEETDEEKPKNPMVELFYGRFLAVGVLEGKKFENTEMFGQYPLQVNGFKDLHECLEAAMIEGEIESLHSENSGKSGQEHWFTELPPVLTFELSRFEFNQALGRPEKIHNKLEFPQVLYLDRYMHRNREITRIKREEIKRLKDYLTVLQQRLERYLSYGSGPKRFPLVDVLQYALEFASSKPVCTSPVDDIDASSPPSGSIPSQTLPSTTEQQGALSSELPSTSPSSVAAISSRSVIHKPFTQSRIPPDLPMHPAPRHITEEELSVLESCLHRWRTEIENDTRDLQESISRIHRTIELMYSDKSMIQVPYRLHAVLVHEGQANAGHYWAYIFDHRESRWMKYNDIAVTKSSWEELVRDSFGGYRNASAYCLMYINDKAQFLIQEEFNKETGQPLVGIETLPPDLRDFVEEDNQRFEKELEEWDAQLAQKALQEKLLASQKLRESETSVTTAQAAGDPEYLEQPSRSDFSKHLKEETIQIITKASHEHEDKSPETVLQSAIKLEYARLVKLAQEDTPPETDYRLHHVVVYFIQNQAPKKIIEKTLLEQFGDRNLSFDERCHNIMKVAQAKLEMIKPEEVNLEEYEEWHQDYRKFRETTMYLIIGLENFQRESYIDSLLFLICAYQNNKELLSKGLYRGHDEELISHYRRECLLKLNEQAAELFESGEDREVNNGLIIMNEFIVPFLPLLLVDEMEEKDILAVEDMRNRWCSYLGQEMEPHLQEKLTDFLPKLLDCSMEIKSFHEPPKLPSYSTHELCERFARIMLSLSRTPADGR", "test": "Ubiquitin-Rhodamine 110 Assay for USP25 Activity, Example A-3", "type": "biochemical", "details": "Ubiquitin-Rhodamine 110 assay, Example A-3; read-out: USP25 A-3 IC50 range", "in_short": "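USP25-His6 ([…] final as stated) preincubated 30 min with compound (10-point, 25 μM to 1.3 nM), then Ub-Rh110 at 25 nM (<<Km) added in pH 8.0 Tris buffer with BME, BGG and Triton X-100. Reaction stopped after 45 min at room temperature with 10 mM citric acid; fluorescence read at 485/535 nm.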"}
{"smiles": "Cc1ccc2c(N)c(C(=O)N[C@H]3COc4cc(N5CCNCC5)ccc4[C@H]3C)sc2n1", "note": "(single isomer, unassigned) [Example 11-15]", "values": [{"measurement": "IC50", "value": "> 2", "unit": "µM"}]}
{"smiles": "Cc1ccc2c(N)c(C(=O)N[C@H]3COc4cc(N5CCNCC5)ccc4[C@@H]3C)sc2n1", "note": "(single isomer, unassigned) [Example 11-16]", "values": [{"measurement": "IC50", "value": "> 2", "unit": "µM"}]}
{"smiles": "Cc1ccc2c(N)c(C(=O)N[C@H]3COc4cc(N5CCNCC5)ccc4[C@@H]3C)sc2n1", "note": "(single isomer, unassigned) [Example 11-17]", "values": [{"measurement": "IC50", "value": "> 2", "unit": "µM"}]}
{"smiles": "Cc1ccc2c(N)c(C(=O)N[C@@H]3COc4cc(N5CCNCC5)ccc4[C@@H]3C)sc2n1", "note": "(single isomer, unassigned) [Example 11-18]", "values": [{"measurement": "IC50", "value": "0.2 to 2", "unit": "µM"}]}
{"smiles": "Cc1cnc2c(N)c(C(=O)N[C@H]3CCc4cc(N5CCNCC5)ccc4C3)sc2n1", "note": "(single isomer, unassigned) [Example 11-19]", "values": [{"measurement": "IC50", "value": "0.2 to 2", "unit": "µM"}]}
{"smiles": "Cc1cnc2c(N)c(C(=O)N[C@@H]3CCc4cc(N5CCNCC5)ccc4C3)sc2n1", "note": "(single isomer, unassigned) [Example 11-20]", "values": [{"measurement": "IC50", "value": "> 2", "unit": "µM"}]}
{"smiles": "Cc1ccc2c(N)c(C(=O)N[C@H]3CCc4cc(N5CCNCC5)ccc4C3)sc2n1", "note": "(single isomer, unassigned) [Example 11-21]", "values": [{"measurement": "IC50", "value": "> 2", "unit": "µM"}]}
{"smiles": "Cc1ccc2c(N)c(C(=O)N[C@@H]3CCc4cc(N5CCNCC5)ccc4C3)sc2n1", "note": "(single isomer, unassigned) [Example 11-22]", "values": [{"measurement": "IC50", "value": "0.2 to 2", "unit": "µM"}]}
{"smiles": "CN[C@H]1CCN(c2ccc3c(c2)CC[C@H](NC(=O)c2sc4nc(C)cnc4c2N)C3)C1", "note": "(single isomer, unassigned) [Example 11-25]", "values": [{"measurement": "IC50", "value": "0.2 to 2", "unit": "µM"}]}
{"smiles": "CN[C@H]1CCN(c2ccc3c(c2)CC[C@@H](NC(=O)c2sc4nc(C)cnc4c2N)C3)C1", "note": "(single isomer, unassigned) [Example 11-26]", "values": [{"measurement": "IC50", "value": "> 2", "unit": "µM"}]}
{"smiles": "CN[C@@H]1CCN(c2ccc3c(c2)CC[C@H](NC(=O)c2sc4nc(C)cnc4c2N)C3)C1", "note": "(single isomer, unassigned) [Example 11-27]", "values": [{"measurement": "IC50", "value": "0.2 to 2", "unit": "µM"}]}
{"smiles": "CN[C@@H]1CCN(c2ccc3c(c2)CC[C@@H](NC(=O)c2sc4nc(C)cnc4c2N)C3)C1", "note": "(single isomer, unassigned) [Example 11-28]", "values": [{"measurement": "IC50", "value": "> 2", "unit": "µM"}]}
{"smiles": "Cc1cnc2c(N)c(C(=O)N[C@H]3CCc4cc(N5C[C@@H]6C[C@H]5CN6)ccc4C3)sc2n1", "note": "(single isomer, unassigned) [Example 11-29]", "values": [{"measurement": "IC50", "value": "0.2 to 2", "unit": "µM"}]}
{"smiles": "Cc1cnc2c(N)c(C(=O)N[C@@H]3CCc4cc(N5C[C@@H]6C[C@H]5CN6)ccc4C3)sc2n1", "note": "(single isomer, unassigned) [Example 11-30]", "values": [{"measurement": "IC50", "value": "0.2 to 2", "unit": "µM"}]}
{"smiles": "Cc1cnc2c(N)c(C(=O)N[C@H]3CCc4cc(N5C[C@H]6C[C@@H]5CN6)ccc4C3)sc2n1", "note": "(single isomer, unassigned) [Example 11-31]", "values": [{"measurement": "IC50", "value": "0.2 to 2", "unit": "µM"}]}
{"smiles": "Cc1cnc2c(N)c(C(=O)N[C@@H]3CCc4cc(N5C[C@H]6C[C@@H]5CN6)ccc4C3)sc2n1", "note": "(single isomer, unassigned) [Example 11-32]", "values": [{"measurement": "IC50", "value": "0.2 to 2", "unit": "µM"}]}
{"smiles": "Cc1nc2sc(C(=O)N[C@H]3CCc4cc(N5CCNCC5)ccc4C3)c(N)c2s1", "note": "(single isomer, unassigned) [Example 11-33]", "values": [{"measurement": "IC50", "value": "0.2 to 2", "unit": "µM"}]}
{"smiles": "Cc1nc2sc(C(=O)N[C@@H]3CCc4cc(N5CCNCC5)ccc4C3)c(N)c2s1", "note": "(single isomer, unassigned) [Example 11-34]", "values": [{"measurement": "IC50", "value": "> 2", "unit": "µM"}]}
{"smiles": "Cc1cnc2c(N)c(C(=O)N[C@@H]3CCc4cc(N5CCNCC5)cc(F)c4C3)sc2n1", "note": "(single isomer, unassigned) [Example 11-37]", "values": [{"measurement": "IC50", "value": "> 2", "unit": "µM"}]}
{"smiles": "Cc1cnc2c(N)c(C(=O)N[C@H]3CCc4cc(N5CCNCC5)cc(F)c4C3)sc2n1", "note": "(single isomer, unassigned) [Example 11-38]", "values": [{"measurement": "IC50", "value": "0.2 to 2", "unit": "µM"}]}
{"smiles": "Cc1ccc2c(N)c(C(=O)N[C@H]3CCc4cc(N5CC6CNCC(C5)O6)cc(F)c4C3)sc2n1", "note": "(single isomer, unassigned) [Example 11-39]", "values": [{"measurement": "IC50", "value": "> 2", "unit": "µM"}]}
{"smiles": "Cc1ccc2c(N)c(C(=O)N[C@@H]3CCc4cc(N5CC6CNCC(C5)O6)cc(F)c4C3)sc2n1", "note": "(single isomer, unassigned) [Example 11-40]", "values": [{"measurement": "IC50", "value": "0.05 to 0.2", "unit": "µM"}]}
{"smiles": "Cc1ccc2c(N)c(C(=O)N[C@@H]3CCc4c(C#N)c(N5CCNCC5)cc(F)c4C3)sc2n1", "note": "(single isomer, unassigned) [Example 14-9]", "values": [{"measurement": "IC50", "value": "> 2", "unit": "µM"}]}
{"smiles": "Cc1ccc2c(N)c(C(=O)N[C@H]3CCc4c(C#N)c(N5CCNCC5)cc(F)c4C3)sc2n1", "note": "(single isomer, unassigned) [Example 14-10]", "values": [{"measurement": "IC50", "value": "0.2 to 2", "unit": "µM"}]}
{"smiles": "Cc1cnc2c(N)c(C(=O)N[C@@H]3CCc4c(C#N)c(N5CCNCC5)cc(F)c4C3)sc2n1", "note": "(single isomer, unassigned) [Example 14-11]", "values": [{"measurement": "IC50", "value": "0.2 to 2", "unit": "µM"}]}
{"smiles": "Cc1cnc2c(N)c(C(=O)N[C@H]3CCc4c(C#N)c(N5CCNCC5)cc(F)c4C3)sc2n1", "note": "(single isomer, unassigned) [Example 14-12]", "values": [{"measurement": "IC50", "value": "> 2", "unit": "µM"}]}
{"smiles": "Cc1nc2sc(C(=O)N[C@@H]3CCc4c(C#N)c(N5CCNCC5)cc(F)c4C3)c(N)c2s1", "note": "(single isomer, unassigned) [Example 14-13]", "values": [{"measurement": "IC50", "value": "> 2", "unit": "µM"}]}
{"smiles": "Cc1nc2sc(C(=O)N[C@H]3CCc4c(C#N)c(N5CCNCC5)cc(F)c4C3)c(N)c2s1", "note": "(single isomer, unassigned) [Example 14-14]", "values": [{"measurement": "IC50", "value": "0.2 to 2", "unit": "µM"}]}
{"smiles": "Cc1ccc2c(N)c(C(=O)N[C@H]3CCc4c(C#N)c(N5CC6CNCC(C5)O6)cc(F)c4C3)sc2n1", "note": "(single isomer, unassigned) [Example 14-15]", "values": [{"measurement": "IC50", "value": "0.001 to 0.05", "unit": "µM"}]}
{"smiles": "Cc1ccc2c(N)c(C(=O)N[C@@H]3CCc4c(C#N)c(N5CC6CNCC(C5)O6)cc(F)c4C3)sc2n1", "note": "(single isomer, unassigned) [Example 14-16]", "values": [{"measurement": "IC50", "value": "0.2 to 2", "unit": "µM"}]}
{"smiles": "Cc1ccc2c(N)c(C(=O)N[C@H]3CCc4c(C#N)c(N5CC6CCC(C5)N6)cc(F)c4C3)sc2n1", "note": "(single isomer, unassigned) [Example 14-17]", "values": [{"measurement": "IC50", "value": "0.001 to 0.05", "unit": "µM"}]}
{"smiles": "Cc1ccc2c(N)c(C(=O)N[C@@H]3CCc4c(C#N)c(N5CC6CCC(C5)N6)cc(F)c4C3)sc2n1", "note": "(single isomer, unassigned) [Example 14-18]", "values": [{"measurement": "IC50", "value": "> 2", "unit": "µM"}]}
{"smiles": "Cc1cnc2c(N)c(C(=O)N[C@H]3CCc4c(C#N)c(N5CC6CCC(C5)N6)cc(F)c4C3)sc2n1", "note": "(single isomer, unassigned) [Example 14-19]", "values": [{"measurement": "IC50", "value": "0.05 to 0.2", "unit": "µM"}]}
{"smiles": "Cc1cnc2c(N)c(C(=O)N[C@@H]3CCc4c(C#N)c(N5CC6CCC(C5)N6)cc(F)c4C3)sc2n1", "note": "(single isomer, unassigned) [Example 14-20]", "values": [{"measurement": "IC50", "value": "> 2", "unit": "µM"}]}
{"smiles": "Cc1nc2sc(C(=O)N[C@H]3CCc4c(C#N)c(N5CC6CCC(C5)N6)cc(F)c4C3)c(N)c2s1", "note": "(single isomer, unassigned) [Example 14-21]", "values": [{"measurement": "IC50", "value": "0.05 to 0.2", "unit": "µM"}]}
{"smiles": "CO[C@H]1CN(c2cc(F)c3c(c2C#N)CC[C@H](NC(=O)c2sc4nc(C)ccc4c2N)C3)C[C@@H]1N", "note": "(single isomer, unassigned) [Example 14-23]", "values": [{"measurement": "IC50", "value": "0.2 to 2", "unit": "µM"}]}
{"smiles": "CO[C@H]1CN(c2cc(F)c3c(c2C#N)CC[C@@H](NC(=O)c2sc4nc(C)ccc4c2N)C3)C[C@@H]1N", "note": "(single isomer, unassigned) [Example 14-24]", "values": [{"measurement": "IC50", "value": "> 2", "unit": "µM"}]}
{"smiles": "Cc1cnc2c(N)c(C(=O)N[C@@H]3CCc4c(ccc(N5CCNCC5)c4F)C3)sc2n1", "note": "(single isomer, unassigned) [Example 21-9]", "values": [{"measurement": "IC50", "value": "0.2 to 2", "unit": "µM"}]}
{"smiles": "Cc1cnc2c(N)c(C(=O)N[C@H]3CCc4c(ccc(N5CCNCC5)c4F)C3)sc2n1", "note": "(single isomer, unassigned) [Example 21-10]", "values": [{"measurement": "IC50", "value": "> 2", "unit": "µM"}]}
{"smiles": "Cc1cnc2c(N)c(C(=O)N[C@@H]3CCc4cc(N5CCNCC5)c(F)cc4C3)sc2n1", "note": "(single isomer, unassigned) [Example 21-11]", "values": [{"measurement": "IC50", "value": "> 2", "unit": "µM"}]}
